Assay results as given in PMC11558128 (Advanced Science, 2024).
Positions of bridges follow the written chain, without caps; N, C: chain ends. Residues, ends and D or L forms follow the SMILES beside them.

Key:
rKv4.3 = target: T1, rKv4.3 (Rattus norvegicus, UniProt Q62897); test: cell-based; details: vs HNTX-III
T1 construct: expressed in transfected cells; host or cells: HEK293T
T1 sequence (Q62897 1-655): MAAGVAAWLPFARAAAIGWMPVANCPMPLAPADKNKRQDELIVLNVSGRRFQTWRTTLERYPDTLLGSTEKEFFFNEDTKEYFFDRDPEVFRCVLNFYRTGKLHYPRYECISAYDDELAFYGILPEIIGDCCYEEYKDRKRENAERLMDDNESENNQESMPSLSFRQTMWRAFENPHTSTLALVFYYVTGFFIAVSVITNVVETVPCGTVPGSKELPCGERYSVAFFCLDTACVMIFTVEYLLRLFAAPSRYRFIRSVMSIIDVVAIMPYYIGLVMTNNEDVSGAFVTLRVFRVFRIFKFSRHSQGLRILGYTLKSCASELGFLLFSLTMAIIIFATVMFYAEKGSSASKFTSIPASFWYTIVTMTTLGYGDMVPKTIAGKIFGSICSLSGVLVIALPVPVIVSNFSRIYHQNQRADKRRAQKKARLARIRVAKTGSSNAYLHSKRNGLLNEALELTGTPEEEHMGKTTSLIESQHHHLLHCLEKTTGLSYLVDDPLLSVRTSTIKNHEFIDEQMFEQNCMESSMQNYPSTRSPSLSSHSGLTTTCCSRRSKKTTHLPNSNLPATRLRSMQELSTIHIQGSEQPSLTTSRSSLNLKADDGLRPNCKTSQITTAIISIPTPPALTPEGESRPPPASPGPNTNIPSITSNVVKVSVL

hNav1.7 = target: T2, hNav1.7 (Homo sapiens, UniProt Q15858); design: method as in 2 sources, one per row (each row's own in cited_ref): ref 11c (a number printed in a supplementary file, which may have a reference list of its own: not looked up in the article's list) ||| ref 11c = [11]; PMID 27129258; doi:10.1074/jbc.M116.725978; 11 a) G. L. Adams , P. S. Pall , S. M. Grauer , X. Zhou , J. E. Ballard , M. Vavrek , R. L. Kraus , P. Morissette , N. Li , S. Colarusso , E. Bianchi , A. Palani , R. Klein , C. T. John , D. Wang , M.; details: vs HNTX-III; ref 11c; cited from earlier work
T2 construct: expressed in transfected cells; host or cells: HEK293T
T2 sequence (O60939 30-215): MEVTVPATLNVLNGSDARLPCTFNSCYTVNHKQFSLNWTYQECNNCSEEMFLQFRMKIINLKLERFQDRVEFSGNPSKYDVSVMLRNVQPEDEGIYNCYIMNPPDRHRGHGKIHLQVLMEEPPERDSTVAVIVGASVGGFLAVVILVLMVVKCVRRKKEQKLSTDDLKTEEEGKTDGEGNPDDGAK
T2 sequence (Q15858 other isoform, or with tags, fused parts or gaps): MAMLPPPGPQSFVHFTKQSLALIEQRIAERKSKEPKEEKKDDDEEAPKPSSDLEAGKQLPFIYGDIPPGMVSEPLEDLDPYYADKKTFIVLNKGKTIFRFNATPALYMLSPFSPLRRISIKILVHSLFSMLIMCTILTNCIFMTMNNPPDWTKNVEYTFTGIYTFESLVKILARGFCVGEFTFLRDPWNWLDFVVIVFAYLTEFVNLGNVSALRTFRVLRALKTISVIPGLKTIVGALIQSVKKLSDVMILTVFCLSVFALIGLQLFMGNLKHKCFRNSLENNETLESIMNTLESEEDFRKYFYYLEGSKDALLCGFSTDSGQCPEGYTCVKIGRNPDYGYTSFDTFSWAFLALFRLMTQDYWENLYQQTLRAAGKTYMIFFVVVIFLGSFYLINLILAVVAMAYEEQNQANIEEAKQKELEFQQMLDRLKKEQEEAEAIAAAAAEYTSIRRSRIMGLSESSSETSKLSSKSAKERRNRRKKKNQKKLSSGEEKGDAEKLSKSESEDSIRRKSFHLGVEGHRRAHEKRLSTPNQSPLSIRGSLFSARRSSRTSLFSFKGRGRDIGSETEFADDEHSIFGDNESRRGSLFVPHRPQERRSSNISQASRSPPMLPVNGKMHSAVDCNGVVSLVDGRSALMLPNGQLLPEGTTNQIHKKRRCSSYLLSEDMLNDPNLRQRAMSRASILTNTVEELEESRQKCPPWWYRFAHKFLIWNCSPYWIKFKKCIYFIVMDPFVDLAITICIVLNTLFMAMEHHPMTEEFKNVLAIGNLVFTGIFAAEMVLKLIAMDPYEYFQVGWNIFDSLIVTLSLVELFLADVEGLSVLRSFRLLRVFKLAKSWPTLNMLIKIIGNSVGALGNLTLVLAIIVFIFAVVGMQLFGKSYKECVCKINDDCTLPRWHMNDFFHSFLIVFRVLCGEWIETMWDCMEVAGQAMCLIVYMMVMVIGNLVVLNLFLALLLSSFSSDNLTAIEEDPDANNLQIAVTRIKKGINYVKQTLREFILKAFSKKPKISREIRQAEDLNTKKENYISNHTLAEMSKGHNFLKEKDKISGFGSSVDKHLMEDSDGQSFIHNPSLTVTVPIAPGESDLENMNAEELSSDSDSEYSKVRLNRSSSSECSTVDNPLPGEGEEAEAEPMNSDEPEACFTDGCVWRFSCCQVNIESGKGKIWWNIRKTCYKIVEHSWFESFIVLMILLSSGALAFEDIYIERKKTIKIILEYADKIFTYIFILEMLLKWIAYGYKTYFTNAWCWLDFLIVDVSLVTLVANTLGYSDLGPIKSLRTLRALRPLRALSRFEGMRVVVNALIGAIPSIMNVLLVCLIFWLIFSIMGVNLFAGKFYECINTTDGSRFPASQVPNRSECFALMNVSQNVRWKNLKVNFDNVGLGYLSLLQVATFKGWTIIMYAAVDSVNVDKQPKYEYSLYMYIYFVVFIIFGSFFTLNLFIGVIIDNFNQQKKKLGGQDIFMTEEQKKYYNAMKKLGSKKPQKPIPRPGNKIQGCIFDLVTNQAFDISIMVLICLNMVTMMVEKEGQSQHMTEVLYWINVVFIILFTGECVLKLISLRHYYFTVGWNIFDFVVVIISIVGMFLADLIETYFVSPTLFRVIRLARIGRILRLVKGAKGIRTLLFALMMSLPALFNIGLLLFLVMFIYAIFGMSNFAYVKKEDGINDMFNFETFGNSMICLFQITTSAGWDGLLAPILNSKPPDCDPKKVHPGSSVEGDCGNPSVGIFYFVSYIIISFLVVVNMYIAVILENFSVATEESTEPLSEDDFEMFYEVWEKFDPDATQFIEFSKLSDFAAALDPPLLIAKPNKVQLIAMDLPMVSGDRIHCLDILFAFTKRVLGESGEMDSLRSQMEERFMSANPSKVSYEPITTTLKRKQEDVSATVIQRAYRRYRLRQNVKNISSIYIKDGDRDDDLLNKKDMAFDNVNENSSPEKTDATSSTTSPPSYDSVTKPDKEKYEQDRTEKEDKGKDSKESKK
T2 sequence (Q07699 19-218, further chain): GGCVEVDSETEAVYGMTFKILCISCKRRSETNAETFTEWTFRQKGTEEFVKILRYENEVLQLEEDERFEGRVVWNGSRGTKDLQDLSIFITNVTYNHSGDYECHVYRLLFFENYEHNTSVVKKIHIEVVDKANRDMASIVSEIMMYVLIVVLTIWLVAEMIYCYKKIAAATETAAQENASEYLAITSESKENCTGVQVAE

C57BL/6 mice [1] = test: CFA-induced inflammatory pain model (von Frey paw withdrawal threshold); details: mouse, in vivo
Procedure: In the Complete Freund's adjuvant (CFA)–induced inflammatory pain modelinflammation is induced by injecting 15 µL of CFA into the intraplantar surface of the right hind paw of C57BL/6 mice (weight 18–20 g, 6–8 weeks, both sex).^[ [38] ^] Mechanical paw withdrawal thresholds are then measured using manual von Frey (Stoelting Co) after 2 days of CFA injection.

C57BL/6 mice [2] = test: Spared nerve injury (SNI) neuropathic pain model; details: mouse, in vivo, ip
Procedure: In the spared nerve injury (SNI) neuropathic pain model,^[ [39] ^] C57BL/6 mice (weight 18–20 g, 6–8 weeks, both sex) were anesthetized with 3% halothane. The thigh was incised parallel to the femur, and the muscles were bluntly separated to expose the sciatic nerve. The sciatic nerve is ligated with 6.0 silk sutures. […] The paw withdrawal threshold to mechanical stimuli is measured between 0 and 180 min after drug administration.

SMILES	improved potency for rKv4.3 (rKv4.3) [fold]	improved potency on hNav1.7 currents (hNav1.7) [fold]	duration of anti-allodynic effect, CFA model (C57BL/6 mice [1]) [h]	mechanical allodynia induced by SNI compared with the saline group (C57BL/6 mice [2])
CC(C)C[C@@H]1NC(=O)[C@H](Cc2ccc(O)cc2)NC(=O)[C@H](CC(N)=O)NC(=O)[C@H](CCCCN)NC(=O)[C@@H]2CSSC[C@H](NC(=O)CNC(=O)[C@@H](N)CCCCN)C(=O)N[C@@H](CCCCN)C(=O)NCC(=O)N[C@@H](Cc3ccccc3)C(=O)NCC(=O)N[C@@H](CC(=O)O)C(=O)N[C@@H](CO)C(=O)N[C@H]3CSSC[C@H](NC1=O)C(=O)N[C@@H](CO)C(=O)N[C@@H](CO)C(=O)N[C@@H](CCCCN)C(=O)N[C@@H](Cc1c[nH]cn1)C(=O)N[C@@H](CCCCN)C(=O)N[C@@H](Cc1c[nH]c4ccccc14)C(=O)N[C@H](C(=O)N[C@@H](CCCCN)C(=O)N[C@H](C(=O)N[C@@H](Cc1ccc(O)cc1)C(=O)N[C@@H](CC(C)C)C(=O)N[C@H](C(N)=O)C(C)C)C(C)C)CSSC[C@H](NC(=O)[C@H](CCC(=O)O)NC(=O)[C@H](CC(N)=O)NC(=O)[C@H](CCCCN)NC(=O)CNC(=O)[C@@H]1CCCN1C(=O)[C@H]([C@@H](C)O)NC3=O)C(=O)N2 [HNTX-III-H4] (H-KGCKGFGDSCTPGKNECCKNYLCSSKHKWCKVYLV-NH2; disulfide 3-18, 10-23, 17-30; N-terminus and C-terminus assumed)	45	30		
CN1CC[C@]23c4c5ccc(O)c4O[C@H]2[C@@H](O)C=C[C@H]3[C@H]1C5 [morphine]			2	significantly decreased
